The structures appear in SMILES notation. pIC50: −log10 of the molar value.

The assay deals with Jurkat cell. The assay can be described thus: Jurkat IL-2 Production Assay. The following applies: Homo sapiens; IL-2 production in Jurkat cells; 18 h~20 h incubation; serum/stimulant condition (1% FBS with PHA or 30% FBS with PMA/Ionomycin) not specified. In kind it is cell-based. Here is the method: Jurkat IL-2 Production Assay
Jurkat cell (ATCC) was grown in RPMI 1640 with 10% FBS and 1% penicillin/streptomycin. The cell density was kept at 1.2˜1.8×10^6/mL in culture flask before seeding into culture plate, and the cell density in the plate was 0.5×10^6/[…]/well.
RPMI 1640 with 1% FBS or 30% FBS for high serum assay.
serial dilution was done in 100% DMSO, and intermediate dilution was done with RPMI 1640 medium with 1% FBS. The DMSO final concentration in culture well was 0.25%.
PHA (Sigma#L9017-10MG) was used for the assay with 1% FBS in culture medium, and added after 10 minutes exposure of cell to compound/DMSO. The PHA final concentration in culture well was 5 μg/mL. PMA (Sigma# P-8139 5MG)/Ionomycin (Sigma#10634-5MG) was used for the assay with 30% FBS in culture medium, and added at same time point as the 1% FBS culture assay. The final concentration of PMA was 50 ng/mL, and Ionomycin final concentration was 500 ng/mL.
at 37° C. with 5% CO2 and 95% humidity for 18 h˜20 h.
IC50 was calculated with the data analysis software XLfit4, General Pharmacology model 251.
As to `Cn1nc(C(F)(F)F)cc1-c1cnc2[nH]c(C3CCCCC3)cc2n1` [Example 6, 6-Cyclohexyl-2-(1-methyl-3-(trifluoromethyl)-1H-pyrazol-5-yl)-5H-pyrrolo[2,3-b]pyrazine], the pIC50 is 6.17.

`Cn1nc(C(F)(F)F)cc1-c1cnc2[nH]c(-c3ccccc3Cl)cc2n1` [Example 2, 6-(2-Chloro-phenyl)-2-(2-methyl-5-trifluoromethyl-2H-pyrazol-3-yl)-5H-pyrrolo[2,3-b]pyrazine] showed a pIC50 of 6.12.

`Cc1cc(S(=O)(=O)N(C)C)ccc1-c1cnc2[nH]c(-c3ccccc3Cl)cc2n1` [Example 4, 4-(6-(2-Chlorophenyl)-5H-pyrrolo[2,3-b]pyrazin-2-yl)-N,N,3-trimethylbenzenesulfonamide] had a pIC50 of 6.88.

With `Cc1cc(S(=O)(=O)N(C)C)ccc1-c1ncc2[nH]c(-c3c(F)cccc3Cl)cc2n1` [Example 1, 4-[6-(2-chloro-6-fluoro-phenyl)-5H-pyrrolo[3,2-d]pyrimidin-2-yl]-3,N,N-trimethyl-benzenesulfonamide], the negative-log IC50 (pIC50) is 6.16.

`COC(=O)c1ccc(-c2cnc3[nH]c(-c4ccccc4Cl)cc3n2)c(C)c1` [Example 3, 4-[6-(2-Chloro-phenyl)-5H-pyrrolo[2,3-b]pyrazin-2-yl]-3-methyl-benzoic acid methyl ester] showed a pIC50 of 6.69.

For `Cn1nc(C(F)(F)F)cc1-c1cnc2[nH]c(-c3c(F)cccc3Cl)cc2n1` [Example 5, 6-(2-chloro-6-fluorophenyl)-2-(1-methyl-3-(trifluoromethyl)-1H-pyrazol-5-yl)-5H-pyrrolo[2,3-b]pyrazine], the pIC50 was 6.57.

On to `Cc1cc(S(=O)(=O)N(C)C)ccc1-c1cnc2[nH]c(C3CCCCC3)cc2n1` [Example 7, 4-(6-cyclohexyl-5H-pyrrolo[2,3-b]pyrazin-2-yl)-N,N,3-trimethylbenzenesulfonamide], for which the negative-log IC50 (pIC50) was 6.74.

One may read the pIC50 as the IC50 on a negative log10 scale, so that one unit is a factor of ten.

Source of the values: patent publication US20130158040A1, “DIAZAINDOLE INHIBITORS OF CRAC” (Hoffmann-La Roche Inc., priority 2011, published 2013).
